Results published in patent US20090087389A1, “DEHYDROEPIAN[…] DIHYDRATE INHALATION COMPOSITIONS AND METHODS” ([…] PHARMACEUTICALS, LLC., priority 2002, published 2009).

Experiments:
[1] = Nebulizer studies (Pari ProNeb Ultra / LC Plus, AS-6 impactor, by-pass collector); settings: 0.12% NaCl; no precipitate during nebulization
Protocol: Nebulizer Studies. […] The nebulizer is filled with 5 mL of solution and nebulization is continued until the output became visually insignificant (4½ to 5 min.). Nebulizer solutions are tested using a California Instruments AS-6 6-stage impactor with a USP throat. The impactor is run at 30 L/min for 8 seconds to collect a sample following one minute of nebulization time. At all other times during the experiment, the aerosol is drawn through the by-pass collector at approximately 33 L/min. The collection apparatus, nebulizer, and impactor are rinsed with mobile phase and assayed by HPLC. […] This volume is selected as the practical upper limit for use in a clinical study.

[2] = solid state; cited from earlier work
[3] = Stability at 50° C. with and without lactose (DHEA formation by HPLC); assay type: physicochemical; settings: 1 week at 50° C.
Source text: These conditions were used to stress the formulation in order to predict its long-term stability results.
The primary degradant is dehydroepiandrosterone or DHEA. […] The materials on accelerated storage become more cohesive with time as evidenced by clumping during sample weighing for chemical analysis. […] This is a considerable disadvantage since lactose is the most commonly used inhalation excipient for dry powder formulations. Continuing with the virtually anhydrous form would mean limiting formulations to neat powder or undertaking more comprehensive safety studies to use a novel excipient.

C[C@]12CC[C@H](OS(=O)(=O)[O-])CC1=CC[C@@H]1[C@@H]2CC[C@]2(C)C(=O)CC[C@@H]12.[Na+] [DHEA-S, sodium dehydroepiandrostenone sulfate]
highest solution concentration for a proof of concept clinical trial formulation [1]: approximately 7.5 mg/mL

C[C@]12CC[C@H](OS(=O)(=O)[O-])CC1=CC[C@@H]1[C@@H]2CC[C@]2(C)C(=O)CC[C@@H]12.[Na+] [Anhydrous DHEA-S]
hygroscopicity [2]: very hygroscopic

CC12CCC3C(CC=C4CC(OS(=O)(=O)[O-])CCC43C)C1CCC2=O.[Na+] (stereo not drawn) [DHEA-S dihydrate, dehydroepiandrosterone sodium sulfate dihydrate]
color after storage [3]: no change in color
